Measurements as given in patent US20170143661A1 (priority 2015, published 2017).

Assays:
Set-up in all cases: species or system broiler birds
Conditions in all cases: in vivo
[1] = test system: Newcastle disease virus, NDV
[2] = test system: Newcastle disease virus, NDV; remark: listed apart in the source
[3] = test system: Newcastle disease virus, NDV; remark: listed apart in the source
[4] = test system: Newcastle disease virus, NDV; remark: listed apart in the source
Interferon-γ (IFN-γ) = test system: Interferon-γ (IFN-γ)
Interleukin-6 (IL-6) = test system: Interleukin-6 (IL-6)

Q: With `CCC(=O)[O-].CCC(=O)[O-].CCC(=O)[O-].[Cr+3]` [chromium propionate] as the compound, how does the “serum antibody titers (ELISA)” value [1] read?
A: enhanced significantly

Q: What about the “serum antibody titers (HI)” value [2] of the same compound?
A: enhanced significantly

Q: What about the daily mortality percentages [3] of the same compound?
A: lower

Q: And the “mortality by day 15 post-challenge” value [3]?
A: 100%

Q: And the onset of mortality [3]?
A: delayed

Q: What about the “mean viral titer in different organs” value [4] of the same compound?
A: lower as compared to the control

Q: And the “serum Interferon-γ (IFN-γ) levels” value (Interferon-γ (IFN-γ))?
A: Significantly higher

Q: And the “post-challenge responses (serum cytokine)” value (Interleukin-6 (IL-6))?
A: increasing trend

Q: What about the “serum Interleukin-6 (IL-6) levels” value (Interleukin-6 (IL-6)) of the same compound?
A: Significantly higher
